The term solubility denotes the concentration that dissolves in the medium under given conditions. One may read the IC50 as the concentration that inhibits the measured activity by half. Higher therefore signals lower potency.

We go through 2 molecules from patent publication JPH0776588A, “p−ボロノフェニルアラニン誘導体、その製造方法及び該誘導体の中間体化合物” (Nippon Aluminum Alkyls Ltd, priority 1993, dated 1995).

In brackets after ≈: the same amount, converted by molar mass. Where only a bound is given, the exact number is not on record here.

In one data set the test system is B16 cells [B16細胞]. Put plainly: Permeability (浸透性) into B16 cells, residual intracellular boron by ICP-MS. It is filed as cell-based, human. The note with it: 24 h.
The nature of a further data set: 水溶性値 (water solubility). It is filed as physicochemical. The note with it: for solubility: water, M (mol dm-3).
Data set [1] in a line: Cytotoxicity in cultured  (B16). The data set is classed as cell-based, human. Particulars: human, B16 cells.
For data set [2], the system named is B-16 human melanoma cells (B16) [B−16ヒト黒色癌細胞(B16)]. As to the kind of experiment: Cytotoxicity in cultured  (B16). It is filed as cell-based. Particulars: 50% or more not killed even after 3 days at 1.77×10^-2 M.
Data set [3] deals with TIG-1-20 human infant germ cells (T20) [TIG−1−20ヒト乳児胚芽細胞(T20)]. As to the kind of experiment: Permeability (浸透性) into T20 cells, residual intracellular boron by ICP-MS. It is filed as cell-based. Particulars: boron compound 0.4 mmol, 37°C, 24 h.
The mark [4] stands for this setting: permeability B16 versus T20, 37°C.

As for `NC(Cc1ccc(B(O)O)cc1)C(=O)O` (racemic) [BPA, p−ボロノフェニルアラニン, reference compound], the “selectivity for B16 over T20 (in words)” value in the data set with B16 cells [B16細胞] (setting [4]) is recorded as “殆ど選択性がない”. The solubility in “水溶性値 (water solubility)” was 7.66 mM (≈ 1.6 mg/mL). For the same molecule, half-maximal inhibition in data set [1] (similar culture conditions (compound (1): after 3 days)) (IC50 at 72 h) required 8.55 mM.

As to `NC(Cc1ccc(B(O)O)cc1)C(=O)NC(CO)CO` (stereo not shown) [化合物(1)], the “permeability into B16 cells (in words, versus BPA)” value in the data set with B16 cells [B16細胞] (boron compound 0.4 mmol, 37°C) was “BPAよりわずかに高い浸透性”. For the same molecule, in the data set on B16 cells [B16細胞] (setting [4]), the “selectivity for B16 over T20” value is not below 5 fold. The “water solubility value relative to BPA” value in the data set “水溶性値 (water solubility)” (ratio to BPA) is on record as approximately 100 fold. In “水溶性値 (water solubility)”, this molecule displayed a solubility of 660 mM (≈ 186 mg/mL). Also, the “IC50 (in words)” value in data set [2] was “高い”. The cytotoxicity at 72 h, 17700 µM in data set [1] (compound at 1.77×10^-2 M, even after 3 days, read-out: cells killed) was less than 50%. Further, the “permeability into T20 cells (in words, versus BPA)” value in data set [3] is listed as “BPAよりはるかに低かった”.
